Consider 2 compounds from patent US7495011B2 (priority 2003, dated 2009).

The test system of series [1] is SARS virus. As to the kind of experiment: microbe, parasite or virus in culture. The conditions noted are these: Severe acute respiratory syndrome coronavirus, Vero, read-out: EC50 (concentration required to inhibit cytopathic effects by viral infection to 50% of the control value). The series is classed as cell-based, SARS-associated coronavirus. A general note: Cytopathic effects are the visible damage that an infection or toxin causes in cultured cells.

The test system of series [2] is SARS virus. The conditions noted are these: background art; cited from earlier work.
A short description of series [3]: in vitro. The conditions noted are these: African green monkey.
Series [4] deals with SARS virus. The class given is cell-based, SARS-associated coronavirus. The conditions noted are these: 10 μM, FIG. 1B.
For series [5], the system named is SARS virus. The series is classed as cell-based, SARS-associated coronavirus. The conditions noted are these: 10 μM, Vero cells, FIG. 1D.
For series [6], the system named is SARS virus. The class given is cell-based, SARS-associated coronavirus. As to conditions: 10 μM, FIG. 1E.

On to `CC1(C)[C@@H](O[C@H]2O[C@H](C(=O)O)[C@@H](O)[C@H](O)[C@H]2O[C@@H]2O[C@H](C(=O)O)[C@@H](O)[C@H](O)[C@H]2O)CC[C@]2(C)[C@H]3C(=O)C=C4[C@@H]5C[C@@](C)(C(=O)O)CC[C@]5(C)CC[C@@]4(C)[C@]3(C)CC[C@@H]12` [Glycyrrhizin, glycyrrhizin], for which the EC50 in series [1] amounted to 364 µM. In addition, the “Efficacy against the SARS virus as reported in the literature” value in series [2] is “extremely limited potency”. In addition, the CC50 in series [3] is over 24300 µM.
Take `Cc1c(O)cccc1C(=O)N[C@@H](CSc1ccccc1)[C@H](O)CN1C[C@H]2CCCC[C@H]2C[C@H]1C(=O)NC(C)(C)C` [Nelfinavir, nelfinavir]: the EC50 in series [1] is 0.0484 µM. Moreover, the “Morphology of SARS virus-infected Vero cells” value in series [4] was “had the same morphology as normal cells”. The “SARS virus infection by immunofluorescence antibody staining” value in series [5] is on record as “advantageously controlled”. Further, the “RNA levels of the SARS virus in Vero cells (RT-PCR)” value in series [6] was “highly inhibitive against the propagation of the SARS virus”. The same compound registered a CC50 in series [3] of 14.6 µM.
